We go through 3 compounds from patent US6306613A, “Modulators of leaderless protein export and methods for identifying and using the same” (Ciblex Corporation, priority 1999, dated 2001).

pIC50: −log10 of the molar value.

The subject of test [1] is secretion of hCG-α from COS cells. As to conditions: cited from earlier work.
Test [2] concerns export of 18 kD FGF-2 from COS cells. As to conditions: 25 μg/ml in chase medium; cited from earlier work.
Test [3] concerns export of FPT (FGF-2 neomycin phosphotransferase chimeric protein) from COS cells. The test is described as follows: Export of FPT chimera from COS cells. The format is cell-based.
In test [4] the test system is export of FGF-2 mutein Arg53Trp (R53W) from COS cells. The test is described as follows: FGF-2 mutein export with ouabain, Arg53Trp. The format is cell-based.
Test [5] has as its system VSV N protein export from COS cells. The class given is cell-based.
The test system of test [6] is export of FGF-2 mutein Lys134Thr (K134T) from COS cells. Put plainly: FGF-2 mutein export with ouabain, Lys134Thr. The format is cell-based.
In test [7] the test system is export of 18 kD FGF-2 from COS cells. The test is described as follows: FGF-2 export from transfected COS cells, pulse-chase and immunoprecipitation. The format is cell-based. The following applies: for inhibition of export of FGF-2 / pIC50: COS cells; for inhibition of export of FGF-2: 10 nM to 1 mM in chase; for pIC50: FGF-2 export, modulator in chase medium, read-out: concentration that inhibits 50% of leaderless protein export. The method, then:
For an immunoprecipitation assay after transfection, the COS cells are metabolically pulse-labeled for 15 minutes with 100 μCi of ^35 S-methionine and ^35 S-cysteine (Trans ^35 S-label, ICN Biomedicals, Irvine, Calif.) in 1 ml of methionine and cysteine free DMEM. Following labeling, the cell monolayers are washed once with DMEM supplemented with excess (10 mM) unlabeled methionine and cysteine for 1-2 minutes. Cells are then cultured in 2 ml of this medium for the indicated lengths of time and the cell supernatants are immunoprecipitated for the presence of leaderless protein. For the indicated cultures, chase medium is supplemented with modulator at the indicated concentrations.
COS cells are cultured in Dulbecco's Modified Eagle Medium (DMEM, University of California San Diego Core Facility) supplemented with 10% fetal bovine serum (Gemini Bioproducts, Inc.), 2 mM L-glutamine, 1 mM sodium pyruvate, 0.1 mM non-essential amino acids, 100 units/ml penicillin, and 100 units/ml streptomycin. An SV-40-based expression vector containing the wild type (human) cDNA encoding multiple FGF-2 isoforms (24, 23, 22 and 18-kD) has been described previously (Florkiewiczand Sommer, supra). Approximately 3×10^5 COS cells in a 60 mm tissue culture dish are transfected with 10 μg of CsCl-purified plasmid DNA mixed with 1.0 ml of transfection buffer (140 mM NaCl, 3 mM KCl, 1 mM CaC'2, 0.5 mM MgCl2, 0.9 mM Na2 HPO4, 25 mM Tris pH 7.4; all from Sigma Chemical Company, Stl. Louis, Mo.). Under these co-transfection conditions using 2 μg of p18dx plus 10 μg pMAMneo, greater than 70% of transfected cells express both proteins, as determined by immunofluorescence microscopy. The ratio of plasmid DNA may be varied with an insignificant change in results. Forty to 48 hours post-DNA transfection COS cells are metabolically pulse-labeled for 15 minutes with 100 μCi of ^35 S-methionine and ^35 S-cysteine (Trans^35 S-label, ICN Biomedicals, Inc.) in 1.0 ml of methionine-and cysteine-free DMEM. After pulse-labeling, the cell monolayers are washed once with DMEM supplemented with excess (10 mM) unlabeled methionine and cysteine (Sigma Chemical Company) and then cultured in 1.0 ml of the same medium (chase) for the indicated lengths of time. Cultures treated with brefeldin A include 15 μg/ml of brefeldin A in the chase medium. Chase medium is also supplemented with 25 μg/ml heparin (Sigma Chemical Company). Although heparin is not necessary to qualitatively detect FGF-2 export, it is necessary in order to quantitatively detect the export of FGF-2 in this assay.
Cell and medium fractions are prepared for immunoprecipitation essentially as described previously (Florkiewicz et al., 1991) except that 400 μl of lysis buffer without NaCl (1% NP-40, 0.5% deoxycholate, 20 mM Tris pH 7.5, 5 mM EDTA, 2 mM EGTA, 0.01 mM phenylinethylsufonyl fluoride, 10 ng/ml aprotiniul, 10 ng/ml leupeptin, and 10 ng/ml pepstatin) is added to the medium fraction clarified by microfuge centrifugation for 15 minutes at 4° C. before adding immune serum. Both cell and medium fractions are incubated with a 1:200 dilution of guinea pig anti-FGF-2 immune serum (prepared in our laboratory) at 21° C. for 40 minutes and then GammaBind G Sepharose® (Pharmacia LKB Biotechnology) is added for an additional 30 minute incubation. […]

For test [8], the system named is secretion of hCG-α from COS cells. Put plainly: hCG-α secretion from transfected COS cells (leader sequence control). The class given is cell-based. The method, then: An expression vector encoding hCG-cc (Guan et al., J. Biol. Chem. 263:5306-5313, 1988), which has a signal sequence, is used as a control to monitor proteins trafficked through the ER/Golgi.
COS cells are co-transfected as described above with plasmids expressing FGF-2, hCG-α, or neomycin phosphotransferase. Metabolic labeling is performed as described above, except that during the chase period, modulator that inhibits export is added at 10 nM to 1 mM in log increments. At the end of the chase, cells and cell media are harvested and processed for immune precipitations as described above.

Test [9] has as its system export of F-gal (FGF-2 β-gal chimeric protein) from COS cells. Put plainly: Export of F-gal chimera from COS cells. The class given is cell-based.
The test system of test [10] is export of FGF-2 mutein Cys78Ser + Cys96Ser (C78,96S) from COS cells. The test is described as follows: FGF-2 mutein export with ouabain, Cys78Ser + Cys96Ser. The class given is cell-based.
The test system of test [11] is IL-1α export from COS cells. Put plainly: IL-1α export from transfected COS cells. The class given is cell-based. As to conditions: 5 mM. The source says: A vector containing a leaderless protein gene. IL-1α, is transfected into COS cells. Cells are metabolically labeled and protein precipitated with anti-IL-1α antibody. […] In contrast to the export of FGF-2, the rate of IL-1 export is slower, having a T1/2 of greater than 24 hrs. […] In addition, IL-1α can be immunoprecipitated from co-transfected COS cells (transfected with IL-1α and the Na/K ATPase α1 subunit) using anti-α1 subunit antibody (FIG. 4).

The subject of test [12] is FGF-2 export from Na+/K+ ATPase α1 co-transfected COS cells. The test is described as follows: FGF-2 export from COS cells co-transfected with rat Na+/K+ ATPase α1. The class given is cell-based. The following applies: twenty-four hours post labeling.
Test [13] relates to export of FGF-2 mutein Arg118Ile from COS cells. The test is described as follows: FGF-2 mutein export with ouabain, Arg118Ile. The class given is cell-based.
For test [14], the system named is export of FGF-2 mutein Lys144Val (K144V) from COS cells. The test is described as follows: FGF-2 mutein export with ouabain, Lys144Val. The format is cell-based.

In the case of `C[C@H]1CCC/C=C/[C@@H]2C[C@H](O)C[C@H]2[C@H](O)/C=C/C(=O)O1` [Brefeldin A], in [1], the “sensitivity of hCG-α secretion” value was “brefeldin sensitive”. For the same compound, the “effect on FGF-2 export” value in test [2] is “no substantial effect”.

On to `C[C@@H]1O[C@@H](O[C@H]2C[C@@H](O)[C@]3(CO)[C@H]4[C@H](O)C[C@]5(C)[C@@H](C6=CC(=O)OC6)CC[C@]5(O)[C@@H]4CC[C@]3(O)C2)[C@H](O)[C@H](O)[C@H]1O` [Ouabain], for which the “inhibition of export of FPT” value in test [3] is given as “can be inhibited”. Moreover, the “Effect of Ouabain on Export” value in [4] (Arg53Trp), in test [10] (Cys78Ser + Cys96Ser), in test [13] and in [14] (Lys144Val) was “decrease” throughout. The “FGF-2 in Cells, 7 hr (+) Ouabain” value in test [4] (R53W) worked out at 70%; in [6] it was 70%; in [10] (C78,96S) it was 62%; in test [13], 79%; in test [14] (K144V), 70%. The “FGF-2 in Media, 7 hr (+) Ouabain” value in test [4] (R53W) was found to be 30%; in test [6] it was 30%; in test [10] (C78,96S), 38%; in [13], 21%; in test [14] (K144V) it was 30%. Besides, the “sensitivity of N protein export” value in test [5] was “ouabain-resistant”. The “inhibition of FGF-2 export at 1 mM” value in test [7] (1 mM, FGF-2 only transfected COS cells) is given as “completely inhibit”. For the same compound, the “inhibition of export of FGF-2” value in test [7] is reported as “inhibit”. Further, the pIC50 in test [7] is approximately 7.00. Moreover, in [8], the “effect on secretion of hCG-α” value was “does not affect secretion of hCG-α”. The “inhibition of export of F-gal” value in test [9] was “can be inhibited”. In addition, the “inhibition of IL-1α export” value in test [11] is given as “inhibted”. Moreover, in [12], the “FGF-2 in media at 1 mM” value was “significant amounts of FGF-2 can be detected in media”.

Take `C[C@H]1O[C@@H](O[C@H]2[C@@H](O)C[C@H](O[C@H]3[C@@H](O)C[C@H](O[C@H]4CC[C@@]5(C)[C@H](CC[C@@H]6[C@@H]5C[C@@H](O)[C@]5(C)[C@@H](C7=CC(=O)OC7)CC[C@]65O)C4)O[C@@H]3C)O[C@@H]2C)C[C@H](O)[C@@H]1O` [digoxin]: in test [7], the “inhibition of export of FGF-2” value is given as “inhibit” and the pIC50 is approximately 5.30.
